Assays:
[1] = DPPH test for the removal of free radicals (activity as free-radical scavengers); settings: DPPH 100 μmol/l in methanol, absorption at 515 nm
Procedure: The activity of the exemplary compounds as free-radical scavengers was compared with that of conventional free-radical scavengers. For this purpose, the DPPH-(1,1-diphenyl-2-picrylhydrazyl) test for the removal of free radicals was used.
DPPH was dissolved in methanol to a concentration of 100 μmol/l. A series of dilutions of the exemplary compounds, vitamin C, α-tocopherol and 3,5-di-tert-butyl-4-hydroxytoluene were prepared in methanol. Methanol served as the control. 2500 μl of the DPPH solution were mixed with 500 μl of each test solution and the decrease in absorption at 515 nm was read until the decrease was less than 2% per hour. The activity of the test substances as free-radical scavengers was calculated according to the following equation:
Activity as free-radical scavenger (%)=100−(absorption of the test compounds)/(absorption of the control)×100.
The activity as free-radical scavenger (%) in a series of dilutions of test compounds was used to calculate, for each test compound, the effective relative concentration EC50 (based on the starting concentration of DPPH, EC=c(test compound)/c(DPPH)) of a test compound at which 50% of the free radical DPPH had been removed.

[2] = Accelerated autoxidation of lipids by air, Rancimat apparatus, soybean oil; settings: antioxidative index = IP(with test solution)/IP(control sample), soybean oil purified over alumina grade N
Procedure: (§1) The activity of the exemplary compounds as antioxidants was compared with that of conventional antioxidants. The test system used was the accelerated autoxidation of lipids by air with or without antioxidant using the Rancimat apparatus (Rancimat is a registered trademark of Metrohm AG, Herisau, Switzerland).
(§2) The exemplary compounds, vitamin C, α-tocopherol and 3,5-di-tert-butyl-4-hydroxytoluene were dissolved in methanol or acetone, and 100 μl of each test solution was added to a 3 g prepared oil sample. In a control sample, only solvent was added. A constant stream of dry air (20 l/h) was bubbled through the heated oil sample which contained the test solution, and the volatile oxidation products (predominantly short-chain fatty acids such as formic acid or acetic acid) were collected in a receiver containing water. The conductivity of this aqueous solution was continuously measured and documented. The oxidation of (unsaturated) fats proceeds only very slowly for some time and then suddenly increases. The time to the increase is referred to as the induction period (IP).
(§3) The following equation was used to calculate the antioxidative index (AOI):
(§4) AOI=IP(with test solution)/IP(control sample).

[3] = Accelerated autoxidation of lipids by air, Rancimat apparatus, squalene; settings: antioxidative index = IP(with test solution)/IP(control sample), squalene purified over alumina grade N, stabilized with 1 ppm α-tocopherol
Procedure: as §1, §2, §3, §4
The results for the experiment at 80° C. in squalene that has been purified over alumina grade N and stabilized with 1 ppm of α-tocopherol are given in Table 4: […]

| Structure (SMILES) | EC50 (effective relative concentration, c(test compound)/c(DPPH), at which 50% of the free radical DPPH had been removed) [1] | AOI in soybean oil at 100° C. with 0.05% test substance [2] | AOI in squalene at 80° C. with 0.005% test substance [3] |
| --- | --- | --- | --- |
| Cc1cc(C(C)(C)C)c(O)c(C(C)(C)C)c1 [3,5-Di-tert-butyl-4-hydroxytoluene, reference compound] | 0.24 mol/mol | 4.8 | 38 |
| COC(=O)NCc1ccc(O)c(O)c1 [Example 1, N-(3,4-Dihydroxybenzyl)-O-methylurethane] | 0.29 mol/mol | 7.2 | 34 |
| CC(C)[C@@H]1CC[C@@H](C)C[C@H]1OC(=O)NCc1ccc(O)c(O)c1 [Example 2, N-(3,4-Dihydroxybenzyl)-O-[(1R,3R,4S)menthyl]urethane] | 0.36 mol/mol | 6.5 | 48 |
| CCCCCCOC(=O)NCc1ccc(O)c(O)c1 [Example 3, N-(3,4-Dihydroxybenzyl)-O-hexylurethane] | 0.19 mol/mol | 14.5 | 49 |
| CCCCC(CC)COC(=O)NCc1ccc(O)c(O)c1 (centres unmarked) [Example 4, N-(3,4-Dihydroxybenzyl)-O-(2-ethylhexyl)urethane] | 0.13 mol/mol | 10.7 | 45 |
| CCCCCCNC(=S)NCc1ccc(O)c(O)c1 [Example 5, N-(3,4-Dihydroxybenzyl)-N′-hexylthiourea] | 0.06 mol/mol | – | 62 |
| O=C1O[C@H]([C@@H](O)CO)C(O)=C1O [Vitamin C, reference compound] | 0.27 mol/mol | 1.2 | 0.7 |
| Cc1c(C)c2c(c(C)c1O)CC[C@@](C)(CCC[C@H](C)CCC[C@H](C)CCCC(C)C)O2 [α-Tocopherol, reference compound] | 0.25 mol/mol | 5.1 | 39 |
